Test results taken from patent publication US12208110B2 (priority 2020, dated 2025).

Experiments:
[1] = MT4 cytotoxicity analysis (CellTiter-Glo); type: cell-based; settings: human, MT4 CC50 (nM)
Method in brief: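 MT-4 cells were exposed in quadruplicate to 3-fold serial compound dilutions (DMSO stocks 2.5 uM to 10 mM) for five days at 37 °C. Viability was read by CellTiter-Glo luminescence.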

[2] = test system: SARS-CoV-2; assay: microbe, parasite or virus in culture; type: cell-based; settings: Severe acute respiratory syndrome coronavirus 2, 48 h
[3] = test system: RSV-Fluc (Recombinant Respiratory Syncytial virus strain A2 containing the firefly luciferase reporter); assay: microbe, parasite or virus in culture; type: cell-based; settings: human respiratory syncytial virus, NHBE, 72 h, read-out: RSV-Fluc EC50 (nM, NHBE)
[4] = in vitro; type: cell-based; settings: human
Experimental: Example 78: A549 Cytotoxicity Analysis
The cytotoxicity of compounds is determined in A549 cells in the following manner. Compounds (40 nL) are spotted onto 384-well Grenier plates prior to seeding 5000 A549 cells/well in a volume of 40 μL culture medium. The plates are incubated at 37° C. for 48 hours with 5% CO2. On day 2, 40 μL of CellTiter-Glo (Promega) is added and mixed 5 times. Plates are read for luminescence on an Envision (PerkinElmer) and the CC50 (compound concentration for reducing 50% of luminescence signal as a measure of cell viability) are calculated using a nonlinear regression model (four parameters). Two experiments are performed with technical duplicates.

[5] = set-up: species or system Sprague-Dawley (SD) rats; settings: male, Sprague-Dawley, rat, in vivo, po, 10 mg/kg
Experimental: Example 80: Rat Lung Phosphate (Monophosphate, Diphosphate and Triphosphate) Data with Exemplary Compounds
Measurement of GS-441524 (compound A below) and its phosphorylated metabolites (compounds B, C, and D below) in lung tissues was performed according to the following protocol.
The concentrations of GS-441524 (A) and its phosphorylated metabolites (B, C, and D) were determined in Sprague-Dawley (SD) rats following oral gavage administration of the test compounds. The in-life phase of studies was conducted at Covance Laboratories (Madison, WI). Animals were housed and handled in accordance with the Guide for the Care and Use of Laboratory Animals, Institute of Laboratory Animal Resources. The protocols were reviewed and approved by the Institutional Animal Care and Use Committees (IACUC). Male SD rats weighing approximately 0.3 kg were used for in-life portion of the studies. The animals were fasted overnight prior to the test compound administration and up to 4 hours post-dose. The animals were administered with the test compound at 5, 8, 10 or 20 mg/kg via oral gavage (3 rats per group). The aqueous formulation contains ethanol, dimethyl sulfoxide, Kolliphor HS-15, Labrasol, and propylene glycol. Approximately 0.5 grams of lung tissue samples were collected from each animal and analyzed by LC/MS/MS for determination of the concentrations of GS-441524 and its phosphorylated metabolites. For LC-MS/MS analysis, tissue samples were homogenized and extracted with 4-fold volume of 70% methanol containing 0.1% potassium hydroxide, 67 mM ethylenediamine tetraacetic acid, and internal standard. Approximately 200 μL aliquot of the homogenate was filtered using a 96-well filter plate (0.2 μm polypropylene; Agilent Captiva, Santa Clara, CA). The filtrate was evaporated to dryness and reconstituted with equal volume of 1 mM ammonium phosphate buffer (pH 7). The samples were then analyzed on a Sciex 6500+ LC-MS/MS instrument (Redwood City, CA). Analytes were eluted on a […] 50×2.0 mm Phenomenex Luna C18 HST column (Torrance, CA) using mobile phases containing 3 mM ammonium formate and 10 mM dimethylhexylamine and a linear gradient from 9% to 50% acetonitrile at a flow rate of 360 μL/min. Data acquisition and processing were accomplished using Sciex Analyst® Software. Total summed levels of GS-441524 phosphorylate metabolites (B+C+D) in lung tissues were generated from the sum of GS-441524 mono-, di- and tri-phosphate (B, C, and D respectively).

SMILES | CC50 at 5 days [1] | EC50 [2] | EC50 [3] | CC50 at 48 h [4] | Total Lung Phosphate Level (monophosphate + diphosphate + triphosphate, nmol/g) [5]
CCCCCCCCCCCCCCCCCCOC[C@H](COP(=O)(O)OC[C@H]1O[C@@](C#N)(c2ccc3c(N)ncnn23)[C@H](O)[C@@H]1O)Oc1cc(OC)c(C#N)c(OC)c1 [Example 34, ((2R,3S,4R,5R)-5-(4-aminopyrrolo[2,1-f][1,2,4]triazin-7-yl)-5-cyano-3,4-dihydroxytetrahydrofuran-2-yl)methyl ((R)-2-(4-cyano-3,5-dimethoxyphenoxy)-3-(octadecyloxy)propyl) hydrogen phosphate] | 460 nM | 43 nM | 11 nM | 10 µM | 2.4 nmol/g
CCCCCCCCCCCCCCCCCCC[C@H](COP(=O)(O)OC[C@H]1O[C@@](C#N)(c2ccc3c(N)ncnn23)[C@H](O)[C@@H]1O)OCc1cc(F)cc(C#N)c1 [Example 35, ((2R,3S,4R,5R)-5-(4-aminopyrrolo[2,1-f][1,2,4]triazin-7-yl)-5-cyano-3,4-dihydroxytetrahydrofuran-2-yl)methyl ((R)-2-((3-cyano-5-fluorobenzyl)oxy)henicosyl) hydrogen phosphate] | 830 nM | 570 nM | 95 nM | 16 µM | 2.7 nmol/g
